Values quoted from earlier work as cited in article PMC12104055 (Frontiers in Pharmacology, 2025).

What was measured:
[1] = ref Nieminen et al., 2010; cited from earlier work
[2] = parameters: method as in earlier work; details: patients after organ transplantation, ref Prikis and Cameron, 2022, Liu et al., 2023, Michael et al.; cited from earlier work

COc1ccc2c3c1O[C@H]1C(=O)CC[C@@]4(O)[C@@H](C2)N(C)CC[C@]314 [oxycodone]
AUC of oxycodone when administered simultaneously with ritonavir [1]: triples

C=CC[C@@H]1/C=C(\C)C[C@H](C)C[C@H](OC)[C@H]2O[C@@](O)(C(=O)C(=O)N3CCCC[C@H]3C(=O)O[C@H](/C(C)=C/[C@@H]3CC[C@@H](O)[C@H](OC)C3)[C@H](C)[C@@H](O)CC1=O)[C@H](C)C[C@@H]2OC [tacrolimus]
Concentration of tacrolimus during Paxlovid treatment [2]: increase significantly
